Experimental data reported in patent EP3570868B1, “[…] ANTIMICROBIAL PEPTIDES AND THEIR APPLICATIONS FOR THE TREATMENT AND PREVENTION OF MUSCU[…]” (Ustav Organicke Chemie a Biochemie AV CR, v.v.i., priority 2017, dated 2018).
Square brackets hold non-standard residues; d marks the D form. Peptide text beside a SMILES is read from it. Met(O) = CS(=O)CC[C@H](N)C(=O)O; βAla = NCCC(=O)O

Tests used:
human red blood cells = assay: Determination of haemolytic activity; assay type: cell-based; settings: human red blood cells (5% v/v), 1 h at 37 °C; concentration for lysis of 50% of erythrocytes
Protocol: The peptides in the concentrations 2-400 µmol.1^-1 were incubated with the suspension of human red blood cells (5% v/v) for 1 h at 37 °C in a physiological solution at a final volume of 0.2 ml. The samples were then centrifuged for 5 min at 250 g. The absorbance of the supernatant was determined at 540 nm. 0.2% (v/v) TRITON X100 was used as a control for 100% haemolysis. Haemolytic activity is expressed as the peptide concentration required for lysis of 50% of human erythrocytes in the assay (LC50). Table 2. Antimicrobial and haemolytic activity of I up to XIII peptides and tetracycline.

[1] = tested on: S. aureus (clin. isolate Liberec); assay: Induced osteomyelitis model in femur heads: effect of peptides released from carrier on infection in the bone graft; assay type: cell-based; settings: ChronOS (200 mg); 10 mg; two days; carrier without peptide 1,4x10^7
Protocol: (§1) 3-4 holes of a diameter of 5 mm and a depth of 10 mm are drilled with a surgical spoon into a femur head under sterile conditions (spongy part of the bone in the resection site). Thereafter, this bone graft is put into a beaker of appropriate size and lined with sterile gauze squares. The gauze is moistened with sterile physiological saline to prevent drying of the bone. Then, suspension of multiplied microbes in an appropriate medium (50-100 µl) at a concentration of 10^7 to 10^9 CFU is sequentially applied to the prepared holes in the bone graft and allowed to incubate for 1-2 days. […] Beaker with the infected bone graft is covered with a sterile Petri dish. During the experiment, induced osteomyelitis models are kept protected from light at room temperature.
(§2) After the incubation, the infected holes in the bone are filled with a mixture of the local carrier, and a peptide selected from the series of peptides of formulae I to XIII or their specific enantiomers (Figure 1). For comparison, one of the holes is filled with the local carrier without peptide, or the carrier filled with antibiotic (vancomycin or gentamicin). A commercially available two-component material supplied by Synthes (Synthes GmbH, Switzerland) under the name ChronOS Inject was used as the carrier. Its solid component comprises a mixture of calcium phosphates CaHPO4.2H2O and Ca3(PO4)2 and additives, the liquid component is 0.5% (vol./vol.) solution of hyaluronic acid.
(§3) After two days, the filling is thoroughly removed with a surgical spoon and empty holes are wiped with moistened sterile cotton swab, which is then extracted into 400 µl physiological saline. The extract is diluted in a tenfold serial dilution and each diluted suspension is cultured on agar in Petri dishes; the culture is evaluated on the following day. […] The result of the peptide effect is also compared with the result of the effect of antibiotics. In some cases, microbiological examination of the bone tissue taken with a surgical spoon from a deeper area of the drilled holes is performed. […] Table 3. Evaluation of the effect of antimicrobial peptides released from the carrier on an infection in the bone graft. Effect of antimicrobial activity is expressed in the number of CFU (colony-forming units) in the infected hole after swabbing.

P.a. 5482 = assay type: cell-based, Pseudomonas aeruginosa; settings: 37° C for 20 h
Protocol: (§4) Gram-positive bacteria (Bacillus subtilis, Staphylococcus aureus, Staphylococcus epidermidis and Enterococcus faecalis), Gram-negative bacteria (Escherichia coli and Pseudomonas aeruginosa) and the yeast (Candida albicans) were grown to exponential phase and then were diluted with fresh medium. BHI medium (Oxoid, Great Britain) was used for Enterococcus faecalis; YPD medium containing yeast extract, peptone and glucose was used for Candida albicans and LB medium (Sigma, Czech Republic) was used for the remaining microorganisms. Then the microorganisms were added to the solutions of the tested antimicrobial peptides in LB medium in multi-well plates, so that the final peptide concentration it the wells was in the range of 0.5 to 100 µmοl.1^-1. The plates were incubated at 37° C for 20 h while being continuously shaken in a Bioscreen C (Oy Growth Curves AB Ltd., Helsinki, Finland). Absorbance was measured at 540 nm every 15 min. Antimicrobial activity (Table 2) was determined as a quantitative minimum inhibitory concentration (MIC) by observing bacterial growth in the presence of different concentrations of tested peptides. In the experiments, ca 10^5 CFU of bacteria or candida per well were used. Tetracycline in a concentration range of 0.5 - 100 µmol.1^-1 was used as a standard.
(§5) Clinical isolates of bacteria were obtained from University Hospital in Motol, Prague, Czech Republic and from Liberec Regional Hospital, Czech Republic. Methicillin resistant Staphylococcus aureus (MRSA) 6271 and Pseudomonas aeruginosa 5482 were from the Czech National Collection of Type Cultures, the National Institute of Public Health, Prague, Czech Republic. Other bacteria were from the Czech Collection of Microorganisms, Brno, Czech Republic. Candida albicans came from the Faculty of Medicine, Palacky University, Olomouc, Czech Republic. Candida tropicalis ATCC 750 and Candida glabrata DSY 565 were obtained from the Institute of Physiology, Academy of Sciences of the Czech Republic.

[2] = tested on: P.a. (clin. isolate Liberec); assay type: cell-based, Pseudomonas aeruginosa; settings: 37° C for 20 h
Protocol: as §4, §5

[3] = tested on: S. epidermidis (clin. isolate Motol); assay: Induced osteomyelitis model in femur heads: effect of peptides released from carrier on infection in the bone graft; assay type: cell-based; settings: 10 mg, two days
Protocol: as §1, §2, §3

Bacillus subtilis = assay type: cell-based; settings: B.s.; 37° C for 20 h
Protocol: as §4, §5

Candida albicans = assay type: cell-based; settings: C.a.; 37° C for 20 h
Protocol: as §4, §5

Escherichia coli = assay type: cell-based; settings: E.c.; 37° C for 20 h
Protocol: as §4, §5

[4] = tested on: E.f. (clin. isolate Motol); assay type: cell-based, Enterococcus faecalis; settings: 37° C for 20 h
Protocol: as §4, §5

[5] = tested on: S.e. (clin. isolate Motol); assay type: cell-based, Staphylococcus epidermidis; settings: 37° C for 20 h
Protocol: as §4, §5

[6] = tested on: MRSA (clin. isolate Motol); assay type: cell-based, Staphylococcus aureus; settings: 37° C for 20 h
Protocol: as §4, §5

[7] = tested on: MRSA (clin. isolate Liberec); assay type: cell-based, Staphylococcus aureus; settings: 37° C for 20 h
Protocol: as §4, §5

MRSA 6271 [8] = assay type: cell-based, Staphylococcus aureus; settings: 37° C for 20 h
Protocol: as §4, §5

MRSA 6271 [9] = assay: Biofilm formation on the surface of a bone cement implant in femur heads; assay type: cell-based, Staphylococcus aureus; settings: two days, cement without peptide 6.0x10^4
Protocol: The resulting elastic paste is placed into a 2 ml plastic syringe (without needle) and pressed into the infected holes in the spongy part of the bone, where it polymerizes and hardens. For comparison, other similarly infected holes are filled with cement containing only an antibiotic or antimycotic agent. For comparison, a Vancogenx® cement (Tecresa S. p. A., Italy) is used, made from a mixture of a powdered polymer component containing vancomycin and gentamicin. The mixture in an amount of 125 mg is mixed with liquid monomer (50-60 µl) and then pressed into the openings as described above. In another embodiment, the cements are applied to uninfected holes, allowed to harden, and then microbes are pipetted into the hole excavated between implants. From there they penetrate through bone tissue and settle on the implants with consequent formation of biofilms.
After two days, implants are removed with metal spikes and tweezers, mechanically cleaned from debris of bone tissue, and washed four times with physiological saline (0.5 ml) in plastic tubes to remove any residual planktonic microbes or bone cells from their surface. The implants in closed tubes with 0.4 ml saline are then sonicated four times for 3 min with occasional shaking. The of microbial biofilm on the surface of the implant is thus disrupted and microbes are loosed into the physiological saline. The resulting suspension is subsequently diluted using the tenfold serial dilution for culturing on agar.
Evaluation of the effect of antimicrobial peptides on the formation of microbial biofilm on the surface of the implant made of the bone cement.

Row | SMILES | Hemolytic activity LC50 (human red blood cells) | CFU/hole [1] | Antimicrobial activity MIC (P.a. 5482) | Antimicrobial activity MIC [2] | CFU/hole ([3]; ChronOS (200 mg), carrier without peptide 7,2x10^4) | Antimicrobial activity MIC (Bacillus subtilis) | Antimicrobial activity MIC (Candida albicans) | Antimicrobial activity MIC (Escherichia coli) | Antimicrobial activity MIC [4] | Antimicrobial activity MIC [5] | Antimicrobial activity MIC [6] | Antimicrobial activity MIC [7] | Antimicrobial activity MIC (MRSA 6271 [8]) | CFU/implant (MRSA 6271 [9]) | CFU/hole ([3]; ChronOS (300 mg), separate holes, carrier without peptide 1,2x10^5)
1 | CC[C@@H](C)[C@@H](NC(=O)[C@@H](CCCCN)NC(=O)[C@@H](CCCCN)NC(=O)[C@@H](CC(C)C)NC(=O)[C@@H](CC(C)C)NC(=O)[C@@H](CCCCN)NC(=O)[C@@H](CCSC)NC(=O)[C@@H](Cc1c[nH]c2ccccc12)NC(=O)[C@H](N)CCCCN)C(=O)N[C@H](CC(C)C)C(=O)N[C@H](CCCCN)C(N)=O [II] (H-[dK][dW][dM][dK][dL][dL][dK][dK][dI][dL][dK]-NH2) | >400 µM | 1,8 x10^4 CFU/hole |  |  |  |  |  |  |  |  |  |  |  |  | 
2 | CC[C@H](C)[C@H](NC(=O)[C@H](CCCCN)NC(=O)[C@H](CCCCN)NC(=O)[C@H](CC(C)C)NC(=O)[C@H](CC(C)C)NC(=O)[C@H](CCCCN)NC(=O)[C@H](CC(C)C)NC(=O)[C@H](Cc1c[nH]c2ccccc12)NC(=O)[C@H](CCCCN)NC(=O)CN)C(=O)N[C@@H](CC(C)C)C(=O)N[C@@H](CCCCN)C(N)=O [Peptide VII] (H-GKWLKLLKKILK-NH2) | 196 µM |  | 4,0 µmol.l^-1 | 10,7 µmol.l^-1 | 1,2 x10^2 CFU/hole | 2,0 µmol.l^-1 | 16,0 µmol.l^-1 | 5,0 µmol.l^-1 | 50,7 µmol.l^-1 | 2,2 µmol.l^-1 | 10,0 µmol.l^-1 | 8,0 µmol.l^-1 | 10,0 µmol.l^-1 |  | 
3 | CC[C@H](C)[C@H](NC(=O)[C@H](CCCCN)NC(=O)[C@H](CCCCN)NC(=O)[C@H](CC(C)C)NC(=O)[C@H](CC(C)C)NC(=O)[C@H](CCCCN)NC(=O)[C@H](CCCCN)NC(=O)[C@H](Cc1c[nH]c2ccccc12)NC(=O)[C@H](CCCCN)NC(=O)CN)C(=O)N[C@@H](CC(C)C)C(=O)N[C@@H](CCCCN)C(N)=O [X] (H-GKWKKLLKKILK-NH2) | >400 µM |  | 2,9 µmol.l^-1 | 9,5 µmol.l^-1 |  | 2,4 µmol.l^-1 | 9,5 µmol.l^-1 | 11,5 µmol.l^-1 | >100 µmol/L | 4,7 µmol.l^-1 | 25,3 µmol.l^-1 | 11,5 µmol.l^-1 | 29,7 µmol.l^-1 |  | 
4 | CC[C@H](C)[C@H](NC(=O)[C@H](CCCCN)NC(=O)[C@H](CCCCN)NC(=O)[C@H](CC(C)C)NC(=O)[C@H](CC(C)C)NC(=O)[C@H](CCCCN)NC(=O)[C@H](CC[S+](C)[O-])NC(=O)[C@H](Cc1c[nH]c2ccccc12)NC(=O)[C@H](CCCCN)NC(=O)CN)C(=O)N[C@@H](CC(C)C)C(=O)N[C@@H](CCCCN)C(N)=O (stereo partly drawn) [XII] (H-GKW[Met(O)]KLLKKILK-NH2) | >400 µM |  | 5,0 µmol.l^-1 | 22,1 µmol.l^-1 |  | 2,5 µmol.l^-1 | 21,3 µmol.l^-1 | 26,7 µmol.l^-1 | >100 µmol/L | 5,0 µmol.l^-1 | 25,3 µmol.l^-1 | 11,5 µmol.l^-1 | 64,0 µmol.l^-1 | 0 CFU/implant | 
5 | CC[C@@H](C)[C@@H](NC(=O)[C@@H](CCCCN)NC(=O)[C@@H](CCCCN)NC(=O)[C@@H](CC(C)C)NC(=O)[C@@H](CC(C)C)NC(=O)[C@@H](CCCCN)NC(=O)[C@@H](CCSC)NC(=O)[C@@H](Cc1c[nH]c2ccccc12)NC(=O)[C@@H](CCCCN)NC(=O)CCN)C(=O)N[C@H](CC(C)C)C(=O)N[C@H](CCCCN)C(N)=O [Peptide VI] (H-[βAla][dK][dW][dM][dK][dL][dL][dK][dK][dI][dL][dK]-NH2) | >400 µM |  |  |  |  |  |  |  |  |  |  |  |  |  | 
6 | CC[C@@H](C)[C@@H](NC(=O)[C@@H](CCCCN)NC(=O)[C@@H](CCCCN)NC(=O)[C@@H](CC(C)C)NC(=O)[C@@H](CC(C)C)NC(=O)[C@@H](CCCCN)NC(=O)[C@H](NC(=O)[C@@H](Cc1c[nH]c2ccccc12)NC(=O)[C@@H](CCCCN)NC(=O)CN)C(C)C)C(=O)N[C@H](CC(C)C)C(=O)N[C@H](CCCCN)C(N)=O [IX] (H-G[dK][dW][dV][dK][dL][dL][dK][dK][dI][dL][dK]-NH2) | >400 µM |  |  |  |  |  |  |  |  |  |  |  |  |  | 0 in all cases CFU/hole
7 | CC[C@@H](C)[C@@H](NC(=O)[C@@H](CCCCN)NC(=O)[C@@H](CCCCN)NC(=O)[C@@H](CC(C)C)NC(=O)[C@@H](CC(C)C)NC(=O)[C@@H](CCCCN)NC(=O)[C@@H](CCSC)NC(=O)[C@@H](Cc1c[nH]c2ccccc12)NC(=O)[C@@H](CCCCN)NC(=O)CN)C(=O)N[C@H](CC(C)C)C(=O)N[C@H](CCCCN)C(N)=O [IV] | >400 µM |  | 4,5 µmol.l^-1 | 12,5 µmol.l^-1 |  | 1,4 µmol.l^-1 | 5,7 µmol.l^-1 | 3,0 µmol.l^-1 | 12,7 µmol.l^-1 | 2,0 µmol.l^-1 | 9,7 µmol.l^-1 | 5,3 µmol.l^-1 | 11,3 µmol.l^-1 |  | 
